Reference: patent US11401271B2, “Fused heterocyclic compound, pyrazole-ring-containing fused heterocyclic compound, agricultural composition containing thereof, and method of using the composition” (SOUTH CHINA AGRICULTURAL UNIVERSITY, priority 2017, dated 2022)
Like-named read-outs stand apart in the source and are kept apart here.

Legend:
Test in all cases: whole plant or invertebrate
Assay type in all cases: in vivo
[1] = system: Spodoptera exigua; conditions: for Spodoptera exigua Mortality (%) / Spodoptera exigua Mortality (%) 500 ppm: 500 ppm, 2nd-instar larvae, leaf immersion feeding; for mortality at 500 ppm: Spodoptera exigua, 24 h, read-out: Spodoptera exigua Mortality (%) 500 ppm; for Spodoptera exigua Mortality (%) 500 ppm: 24 hours
Experimental: (2) Insecticidal Activity on 2nd-Instar Larvae of Spodoptera exigua.
Spodoptera exigua is a lepidoptera pest with a chewing mouthpart and is a common vegetable pest. The 2nd-instar larvae of Spodoptera exigua were used as test objects and tested by using a leaf immersion feeding method.
(§1) Operation process: Samples were weighed accurately, and respectively added with 200 μL, of dimethyl sulfoxide to prepare 10 g/L mother liquor which was diluted into a concentration of 500 ppm with an aqueous solution containing 0.05% of Tween-80 during the test. A hole puncher with a diameter of 1.0 cm was used to make cleaned cabbage leaves into leaf discs. The leaf discs were immersed in a liquid medicine, taken out after 5 seconds, air-dried naturally, and transferred into a clean vessel. About 35 2nd -instar larvae of Spodoptera exigua were put into the vessel and fed at a constant temperature of 28° C. Each concentration was repeated 3 times, and an aqueous solution containing 0.05% of Tween-80 was used as a control group. After being treated for 24 hours, a number of dead Spodoptera exigua was counted, and a mortality (%) was calculated according to a formula that mortality (%)=(number of live larvae in the control group −number of treated live larvae)/number of live larvae in the control group * 100%.

[2] = system: Aphis craccivora; conditions: for Aphis craccivora Mortality (%) / Aphis craccivora Mortality (%) 500 ppm: 500 ppm, wingless adults; for Aphis craccivora Mortality (%): immersion 5 seconds, counted after 24 hours; for mortality at 500 ppm: Aphis craccivora, 24 h, read-out: Aphis craccivora Mortality (%) 500 ppm; for Aphis craccivora Mortality (%) 500 ppm: impregnation method, 24 hours
Experimental: (3) Insecticidal Activity on Aphid Adults.
Aphid is a homoptera pest with a piercing-sucking mouthpart and is a common vegetable pest. Aphis craccivora were taken as test objects and tested by using an impregnation method.
Operation process: Samples were weighed accurately, and respectively added with 200 μL of dimethyl sulfoxide to prepare 10 g/L mother liquor which was diluted into a concentration of 500 ppm with an aqueous solution containing 0.05% of Tween-80 during the test. After the wingless Aphis craccivora adults stably sucked on bean sprouts, the wingless Aphis craccivora adults together with the bean sprouts were immersed into a liquid medicine with a concentration of 500 ppm, taken out after 5 seconds, air-dried naturally, transferred into a clean vessel, and fed at a constant temperature of 23° C. Each concentration was repeated 3 times, and an aqueous solution containing 0.05% of Tween-80 was used as a control group. After being treated for 24 hours, a number of dead Aphis craccivora was counted, and a mortality (%) was calculated according to a formula that mortality (%)=(number of live Aphis craccivora in the control group−number of treated live Aphis craccivora)/number of live Aphis craccivora in the control group*100%.

[3] = system: Solenopsis invicta; conditions: water test tube poison-feeding; for Solenopsis invicta Mortality (%) 24 h / Solenopsis invicta Mortality (%) 72 h / Solenopsis invicta Mortality (%) 100 ppm 24 h / Solenopsis invicta Mortality (%) 100 ppm 72 h: 100 ppm; for mortality at 100 ppm: Solenopsis invicta
Experimental: (4) Insecticidal Activity on Solenopsis invicta.
As a hymenoptera pests and a social insect, Solenopsis invicta is one of the most destructive invasive organisms. Solenopsis invicta were used as test objects and tested by using a water test tube poison-feeding method.
Operation process: Samples were weighed accurately, and respectively added with 200 μL of dimethyl sulfoxide to prepare 10 g/L mother liquor which was diluted into a concentration of 100 ppm with a mixed aqueous solution containing 0.05% of Tween-80 and 5% of honey during the test. […] The raising test tube was placed in a raising box horizontally, and a small amount of ham sausages were added to the raising test tube as food to raise the Solenopsis invicta at a constant temperature of 25° C. After being treated for 24 hours and 72 hours, a number of live Solenopsis invicta and a number of dead Solenopsis invicta were counted, and a mortality (%) was calculated according to a formula that mortality (%)=(number of live Solenopsis invicta in the control group−number of treated live Solenopsis invicta)/number of live Solenopsis invicta in the control group*100%.

[4] = system: Plutella xylostella; conditions: for Plutella xylostella Mortality (%) / Plutella xylostella Mortality (%) 500 ppm: 500 ppm, 2nd-instar larvae, leaf immersion feeding; for mortality at 500 ppm: Plutella xylostella, read-out: Plutella xylostella Mortality (%) 500 ppm
Experimental: (1) Insecticidal Activity on 2nd-Instar Larvae of Plutella xylostella.
Plutella xylostella (L.) is a lepidoptera pest with a chewing mouthpart and is a common vegetable pest. The 2nd-instar larvae of Plutella xylostella were used as test objects and tested by using a leaf immersion feeding method.
as §1, with “μL” for “μL,”, “2nd-instar” for “2nd -instar”, “Plutella xylostella” for “Spodoptera exigua”, “group−number” for “group −number”, “group*100%.” for “group * 100%.”

[5] = 24 h, read-out: Solenopsis invicta Mortality (%) 100 ppm 24 h, 100 ppm, 24 h
[6] = 72 h, read-out: Solenopsis invicta Mortality (%) 100 ppm 72 h, 100 ppm, 72 h

SMILES	Spodoptera exigua Mortality (%) [1]	Aphis craccivora Mortality (%) [2]	Solenopsis invicta Mortality (%) 24 h ([3]; 24 h)	Solenopsis invicta Mortality (%) 72 h ([3]; 72 h)	Plutella xylostella Mortality (%) [4]	Spodoptera exigua Mortality (%) 500 ppm [1]	Aphis craccivora Mortality (%) 500 ppm [2]	Solenopsis invicta Mortality (%) 100 ppm 24 h ([3]; 24 h)	Solenopsis invicta Mortality (%) 100 ppm 72 h ([3]; 72 h)	Plutella xylostella Mortality (%) 500 ppm [4]	also measured
N#CCC1(C(F)(F)F)Nc2c([S+]([O-])C(F)(F)F)c(C#N)nn2-c2c(Cl)cc(C(F)(F)F)cc21 (stereo not drawn) [d-70]	90%	99%	20%	98%	91%						
N#Cc1nn2c(c1-c1ccccc1C(F)(F)F)NC(CCl)(C(O)CO)c1cc(C(F)(F)F)cc(Cl)c1-2 (centres unmarked) [Compound C53]											mortality at 500 ppm [1]: 89%; mortality at 500 ppm [2]: 90%; mortality at 100 ppm [3, 5]: 28%; mortality at 100 ppm [3, 6]: 97%; mortality at 500 ppm [4]: 78%
CNC(=O)CC1Nc2c(OC(F)(F)F)c(C#N)nn2-c2cncc(Cl)c21 (centres unmarked) [b-123]	95%	100%	24%	100%	99%						
Cc1cc(-c2c(C#N)nn3c2NC(C(O)CO)(C(F)(F)F)c2cc(C(F)(F)F)cc(Cl)c2-3)c(C)o1 (centres unmarked) [Compound C54]											mortality at 500 ppm [1]: 78%; mortality at 500 ppm [2]: 87%; mortality at 100 ppm [3, 5]: 17%; mortality at 100 ppm [3, 6]: 84%; mortality at 500 ppm [4]: 77%
COC(=O)CC1(C(=O)OC)Nc2c([S+]([O-])C(F)(F)F)c(C#N)nn2-c2c(C(F)(F)F)ccc(Cl)c21 (centres unmarked) [e-1]	100%	100%	33%	100%	100%						
CC(C)(C)Nc1c(C#N)nn2c1NC(C)(C)c1ccccc1-2 [Compound A16]											mortality at 500 ppm [1]: 100%; mortality at 500 ppm [2]: 100%; mortality at 100 ppm [3, 5]: 20%; mortality at 100 ppm [3, 6]: 87%; mortality at 500 ppm [4]: 86%
CNC1(CC#N)Nc2c([S+]([O-])C(F)(F)F)c(C#N)nn2-c2cncc(Cl)c21 (centres unmarked) [b-43]	80%	89%	19%	90%	89%						
N#Cc1nn2c(c1[S+]([O-])C(F)(F)F)NC(Cc1ccccc1)(C(=O)C(F)(F)F)c1cc(C(F)(F)F)cnc1-2 (centres unmarked) [a-27]						100%	100%	25%	100%	100%	
Nc1ccc2c(c1)-n1nc(C(F)(F)F)c(Br)c1NC2(C(F)(F)F)C(F)(F)F [Compound A11]											mortality at 500 ppm [1]: 100%; mortality at 500 ppm [2]: 100%; mortality at 100 ppm [3, 5]: 34%; mortality at 100 ppm [3, 6]: 100%; mortality at 500 ppm [4]: 100%
N#Cc1nn2c(c1[S+]([O-])C(F)(F)F)NC(CBr)(C(=O)C(F)(F)F)c1cc(C(F)(F)F)cnc1-2 (centres unmarked) [a-29]						91%	100%	14%	96%	100%	
CC(C)C1Nc2c(OC(F)(F)F)c(C#N)nn2-c2c(Cl)cc(C(F)(F)F)cc21 (stereo not drawn) [d-141]	95%	100%	11%	91%	90%						
COC(=O)CC1Nc2c([S+]([O-])C(F)(F)F)c(C(F)(F)F)nn2-c2ncc(C(F)(F)F)cc21 (centres unmarked) [a-88]						100%	100%	34%	100%	100%	
Cc1ccc(S(=O)(=O)Nc2c(C#N)nn3c2NC(C)(C)c2ccccc2-3)cc1 [Compound A20]											mortality at 500 ppm [1]: 90%; mortality at 500 ppm [2]: 100%; mortality at 100 ppm [3, 5]: 26%; mortality at 100 ppm [3, 6]: 93%; mortality at 500 ppm [4]: 100%
CC1(C)Nc2c([S+]([O-])C(F)(F)F)c(C#N)nn2-c2ncc(C(F)(F)F)cc21 (centres unmarked) [a-51]						89%	100%	16%	95%	91%	
COC(=O)C1(CC(N)=O)Nc2c([S+]([O-])C(F)(F)F)c(C#N)nn2-c2c(Cl)cc(C(F)(F)F)cc21 (stereo not drawn) [d-20]	100%	100%	14%	100%	100%						
COC(=O)C1(CC#N)Nc2c([S+]([O-])C(F)(F)F)c(C#N)nn2-c2ncc(C(F)(F)F)cc21 (centres unmarked) [a-2]						97%	100%	19%	98%	97%	
N#Cc1nn2c(c1[S+]([O-])C(F)(F)F)NC(C(=O)C(F)(F)F)c1cc(C(F)(F)F)cnc1-2 (centres unmarked) [a-71]						99%	100%	24%	100%	100%	
N#Cc1nn2c(c1OC(F)(F)F)NC(C#N)c1c(Cl)cncc1-2 (centres unmarked) [b-118]	91%	100%	14%	99%	99%						
N#Cc1nn2c(c1[S+]([O-])C(F)(F)F)NC(CC(=O)C(F)(F)F)(C(F)(F)F)c1cc(C(F)(F)F)cnc1-2 (centres unmarked) [a-63]						100%	100%	24%	100%	100%	
N#CCC1(C(=O)C(F)(F)F)Nc2c([S+]([O-])C(F)(F)F)c(C#N)nn2-c2ncc(C(F)(F)F)cc21 (centres unmarked) [a-30]						90%	100%	20%	97%	96%	
CSc1nn2c(c1C#N)NC(F)(C(F)(F)F)c1ccccc1-2 (centres unmarked) [Compound A25]											mortality at 500 ppm [1]: 100%; mortality at 500 ppm [2]: 100%; mortality at 100 ppm [3, 5]: 38%; mortality at 100 ppm [3, 6]: 100%; mortality at 500 ppm [4]: 100%
CCOC(=O)C1(CC(=O)OC)Nc2c([S+]([O-])C(F)(F)F)c(C#N)nn2-c2cncc(Cl)c21 (centres unmarked) [b-23]	95%	100%	10%	97%	96%						
